{
  "source": "patent US9487508B2",
  "about": "“SGC stimulators” (IRONWOOD PHARMACEUTICALS, INC., priority 2012, dated 2016)",
  "key": {"[1]": {"test_system": "lambs with acute pulmonary hypertension", "details": "cited from earlier work; for pulmonary vasodilation / effect on mean arterial pressure / transpulmonary cGMP release / systemic arterial oxygenation: inhaled microparticles, awake lambs; for pulmonary vasodilation: U-46619 infused to mean pulmonary arterial pressure 35 mm Hg; for effect on mean arterial pressure / transpulmonary cGMP release / systemic arterial oxygenation: U-46619 infusion"}, "[2]": {"target": "T1, soluble guanylate cyclase (sGC) (Homo sapiens, UniProt Q02108+Q02153)", "T1 construct": "endogenously expressing soluble guanylate cyclase (sGC); endogenous in cells; host or cells: HEK293", "T1 sequence (Q02153 1-619)": "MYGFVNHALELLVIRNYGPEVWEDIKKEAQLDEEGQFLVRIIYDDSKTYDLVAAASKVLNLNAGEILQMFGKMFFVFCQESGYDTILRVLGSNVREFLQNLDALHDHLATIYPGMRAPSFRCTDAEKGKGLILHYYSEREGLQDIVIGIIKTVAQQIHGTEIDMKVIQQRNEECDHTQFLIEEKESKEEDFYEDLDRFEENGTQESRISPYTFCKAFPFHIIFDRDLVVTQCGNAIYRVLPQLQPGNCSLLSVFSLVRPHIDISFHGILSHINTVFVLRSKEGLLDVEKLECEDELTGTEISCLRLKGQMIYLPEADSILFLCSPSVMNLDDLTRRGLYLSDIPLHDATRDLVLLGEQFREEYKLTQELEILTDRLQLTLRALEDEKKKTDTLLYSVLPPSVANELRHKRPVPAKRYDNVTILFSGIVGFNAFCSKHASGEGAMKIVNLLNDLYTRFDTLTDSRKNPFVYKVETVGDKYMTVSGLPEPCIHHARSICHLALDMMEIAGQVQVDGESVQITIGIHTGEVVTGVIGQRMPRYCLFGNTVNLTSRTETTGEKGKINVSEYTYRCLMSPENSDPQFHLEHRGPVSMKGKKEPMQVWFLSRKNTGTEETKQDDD", "T1 sequence (Q02108 1-690)": "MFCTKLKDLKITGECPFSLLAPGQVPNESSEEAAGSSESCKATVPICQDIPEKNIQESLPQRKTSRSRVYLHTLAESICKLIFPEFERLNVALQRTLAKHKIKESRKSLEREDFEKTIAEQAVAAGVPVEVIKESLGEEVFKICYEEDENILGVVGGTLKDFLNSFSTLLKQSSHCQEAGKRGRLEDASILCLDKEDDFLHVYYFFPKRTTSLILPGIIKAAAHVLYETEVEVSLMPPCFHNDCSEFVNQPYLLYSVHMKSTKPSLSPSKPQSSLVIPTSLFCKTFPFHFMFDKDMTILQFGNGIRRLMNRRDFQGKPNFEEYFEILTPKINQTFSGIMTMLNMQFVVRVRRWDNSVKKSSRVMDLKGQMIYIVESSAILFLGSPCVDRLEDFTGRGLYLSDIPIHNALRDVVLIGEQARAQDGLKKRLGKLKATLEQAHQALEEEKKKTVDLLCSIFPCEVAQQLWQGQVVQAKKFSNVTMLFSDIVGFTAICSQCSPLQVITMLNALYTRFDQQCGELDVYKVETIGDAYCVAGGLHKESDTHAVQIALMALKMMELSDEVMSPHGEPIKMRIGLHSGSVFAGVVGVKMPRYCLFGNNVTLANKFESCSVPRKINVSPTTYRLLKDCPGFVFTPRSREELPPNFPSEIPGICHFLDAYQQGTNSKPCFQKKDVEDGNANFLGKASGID", "experiment": "sGC-HEK-cGMP assay with SNP incubation (LC/MS read-out)", "type": "cell-based", "details": "10 μM SNP; for Emax at 1 µM: 1 μM compound, read-out: HEK assay (Percent Emax at 1 μM); for Emax at 1 µM / Emax at 10 µM / Emax at 30 µM: 100% = BAY 41-2272 at 10 μM with 100 μM SNP; for Emax at 10 µM: 10 μM compound, read-out: HEK assay (Percent Emax at 10 μM); for Emax at 30 µM: 30 μM compound, read-out: HEK assay (Percent Emax at 30 μM); for Emax: maximum of full concentration-response curve, top not fitted to 100%, relative to BAY 41-2272 control, read-out: HEK assay Emax-unconstrained (Percent); for EC50: top of curve not fitted to 100%, read-out: HEK assay EC50-unconstrained", "method": "(Assay Run with SNP Incubation)\nHuman embryonic kidney cells (HEK293), endogenously expressing soluble guanylate cyclase (sGC), were used to evaluate the activity of test compounds. Compounds stimulating the sGC receptor should cause an increase in the intracellular concentration of cGMP. HEK 293 cells were seeded in Dulbecco's Modification of Eagle's Medium supplemented with fetal bovine serum (10% final) and L-glutamine (2 mM final) in a 200 μL volume at a density of 1×10^5 cells/well in a poly-D-lysine coated 96 well flat bottom plate and grown overnight at 37° C. Medium was aspirated and cells were washed with 1× Hank's Buffered Saline Salt Solution (200 μL). Cells were then incubated for 15 minutes at 37° C. with 200 μL of a 0.5 mM 3-isobutyl-1-methylxanthine (IBMX) solution. Test article and sodium nitroprusside solutions (x μM concentration for test article solution and 10 μM concentration for SNP solution; wherein x is one of the following concentrations);\nwere then added to the assay mixture (2 μL each) and the resulting mixture incubated at 37° C. for 10 minutes. After the 10 minute incubation, the assay mixture was aspirated and 0.1M HCl (200 μL) was added to the cells. The plate was incubated at 4° C. for 30 minutes in the 0.1M HCl to stop the reaction and lyse the cells. The plates were then centrifuged at 1,200 g for 5 minutes at room temperature. Supernatants were collected and transferred to a new flat bottom 96 well plate for analysis by HPLC-MS. Vehicle controls were carried out using DMSO (1%) solutions. A known sGC stimulator, BAY 41-2272, was used as the positive control. Samples were diluted with an equal volume of 1 M Ammonium Acetate (pH 7) to neutralize samples for better chromatography. A 2×cGMP standard solution was prepared in 0.1 M HCl and then diluted with an equal volume of 1 M Ammonium Acetate, with the following final concentrations in nM: 1024, 512, 256, 128, 64, 32, 16, 8, 4, 2, 1. cGMP concentrations in the test plates were determined from each sample using the LC/MS conditions shown in Table 2 below and the calculated cGMP standard curve. EC50 values were calculated from concentration-response curves generated with GraphPad Prism Software.\nThe biological activities of some of the compounds of Formula I or Formula Ib determined with the sGC-HEK assay with SNP incubation are summarized in Tables 3A and 3B."}},
  "data": [
    {"smiles": "Nc1nc(-c2nn(Cc3ccccc3F)c3ncccc23)ncc1C1CC1", "note": "[BAY 41-2272]", "values": [
      {"measurement": "pulmonary vasodilation", "setting": "[1]", "result": "dose dependent pulmonary vasodilation"},
      {"measurement": "effect on mean arterial pressure", "setting": "[1]", "result": "without significant effect"},
      {"measurement": "transpulmonary cGMP release", "setting": "[1]", "result": "increased transpulmonary cGMP release"}
    ]},
    {"smiles": "Nc1nc(-c2nn(Cc3ccccc3F)c3ncccc23)nc(N)c1N1CCOCC1", "note": "[BAY 41-8543]", "values": [
      {"measurement": "magnitude and duration of pulmonary vasodilation induced by iNO", "setting": "[1]; after inhaling microparticles, lambs", "result": "augmented"},
      {"measurement": "pulmonary vasodilation", "setting": "[1]", "result": "dose dependent pulmonary vasodilation"},
      {"measurement": "effect on mean arterial pressure", "setting": "[1]", "result": "without significant effect"},
      {"measurement": "systemic arterial oxygenation", "setting": "[1]", "result": "increased systemic arterial oxygenation"},
      {"measurement": "transpulmonary cGMP release", "setting": "[1]", "result": "increased transpulmonary cGMP release"}
    ]},
    {"smiles": "O=C(O)CCCCN(CCc1ccccc1OCc1ccc(CCc2ccccc2)cc1)Cc1ccc(C(=O)O)cc1", "note": "[BAY 58-2667]", "values": [
      {"measurement": "pulmonary vasodilation and transpulmonary cGMP release after treatment with ODQ", "setting": "[1]; inhaled microparticles after intravenous ODQ, lambs", "result": "greatly enhanced"},
      {"measurement": "pulmonary vasodilation", "setting": "[1]", "result": "dose dependent pulmonary vasodilation"},
      {"measurement": "effect on mean arterial pressure", "setting": "[1]", "result": "without significant effect"},
      {"measurement": "systemic arterial oxygenation", "setting": "[1]", "result": "increased systemic arterial oxygenation"},
      {"measurement": "transpulmonary cGMP release", "setting": "[1]", "result": "increased transpulmonary cGMP release"}
    ]},
    {"smiles": "O=c1[nH]c(-n2cc(-c3ccon3)c(Cc3ccccc3F)n2)ncc1F", "note": "[Compound I-1]", "values": [
      {"measurement": "Emax at 1 µM", "setting": "[2]", "result": "60 to 80", "unit": "%"},
      {"measurement": "Emax at 10 µM", "setting": "[2]", "result": "80 to 100", "unit": "%"},
      {"measurement": "Emax at 30 µM", "setting": "[2]", "result": "80 to 100", "unit": "%"},
      {"measurement": "Emax", "setting": "[2]", "result": "80 to 100", "unit": "%"},
      {"measurement": "EC50", "setting": "[2]", "result": "10 to 100", "unit": "nM"}
    ]},
    {"smiles": "CC(C)[C@@H](C(=O)O)N(C)c1nc(-n2cc(-c3ccon3)c(Cc3ccccc3F)n2)ncc1F", "note": "[Compound I-4]", "values": [
      {"measurement": "Emax at 1 µM", "setting": "[2]", "result": "80 to 100", "unit": "%"},
      {"measurement": "Emax at 10 µM", "setting": "[2]", "result": "100 to 120", "unit": "%"},
      {"measurement": "Emax at 30 µM", "setting": "[2]", "result": "100 to 120", "unit": "%"},
      {"measurement": "Emax", "setting": "[2]", "result": "100 to 120", "unit": "%"},
      {"measurement": "EC50", "setting": "[2]", "result": "10 to 100", "unit": "nM"}
    ]},
    {"smiles": "Nc1ccnc(-n2cc(-c3ccon3)c(Cc3ccccc3F)n2)n1", "note": "[Compound I-9]", "values": [
      {"measurement": "Emax at 1 µM", "setting": "[2]", "result": "60 to 80", "unit": "%"},
      {"measurement": "Emax at 10 µM", "setting": "[2]", "result": "80 to 100", "unit": "%"},
      {"measurement": "Emax at 30 µM", "setting": "[2]", "result": "80 to 100", "unit": "%"},
      {"measurement": "Emax", "setting": "[2]", "result": "80 to 100", "unit": "%"},
      {"measurement": "EC50", "setting": "[2]", "result": "100 to 500", "unit": "nM"}
    ]},
    {"smiles": "COc1nc(-n2cc(-c3ccon3)c(Cc3ccccc3F)n2)ncc1F", "note": "[Compound I-10]", "values": [
      {"measurement": "Emax at 1 µM", "setting": "[2]", "result": "20 to 40", "unit": "%"},
      {"measurement": "Emax at 10 µM", "setting": "[2]", "result": "20 to 40", "unit": "%"},
      {"measurement": "Emax at 30 µM", "setting": "[2]", "result": "20 to 40", "unit": "%"},
      {"measurement": "Emax", "setting": "[2]", "result": "20 to 40", "unit": "%"},
      {"measurement": "EC50", "setting": "[2]", "result": "500 to 1000", "unit": "nM"}
    ]},
    {"smiles": "O=c1onc2cnc3ccccc3n12", "note": "[ODQ, 1H-[1,2,4]oxadiazolo[4,3-a]quinoxalin-1-one]", "values": [
      {"measurement": "pulmonary vasodilator effect of iNO", "setting": "[1]; intravenous administration, lambs", "result": "markedly reduced"}
    ]}
  ]
}
